Holding throughout (assay): inhibition of tumour cell growth, NCI panel, 48 h
Assay [1] deals with XF 498 CNS.
For assay [2], the system named is DMS 114 small cell lung.
The subject of assay [3] is HOP-18 NSCLC.
For assay [4], the system named is M19-MEL melanoma.
The test system of assay [5] is KM20L2 colon.
Assay [6] has as its system DMS 273 small cell lung.
The subject of assay [7] is SNB-78 CNS.
Assay [8] concerns MDA-N.
Assay [9] concerns RXF-631 renal.

The values below come from PubChem BioAssay (NCI).

SMILES strings stand for the structures. “And” between values parts separate entries of the source, which are not always exact repeats. Identical values can stand only once.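 Compound exposure: 48 hours, 5 concentrations, 96-well plates. TGI: total growth inhibition.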

Consider `O=S1(=O)C[C@H](O)[C@H](O)CS1`, for which the TGI in assay [1], in [2], in assay [3], in [4], in assay [5] and in [6] was > 100 µM each time. Also, the TGI in assay [7] is > 100 µM.

As for `NC(=O)NC1C(c2ccccc2)=C1c1ccccc1`, the TGI in assay [8] came out at 34.4 µM.

Consider `O/N=C/C1C(OCc2ccccc2)C(OCc2ccccc2)C(OCc2ccccc2)CN1Cc1ccccc1` (centres undefined), for which the TGI in assay [8] was 39.3 µM and > 100 µM.

As for `O=C(O)C1C2C=CC(O2)C1C(=O)NCc1ccccn1` (centres undefined), the TGI in assay [8] was > 100 µM.

Regarding `Cc1cc([N+](=O)[O-])ccc1Nc1cccc(Cl)c1C`, the TGI in [2] stood at 28.9 µM; in assay [3], 29.6 µM; in assay [4], 30.6 µM; in [5], 29.8 µM; in assay [6] it was 28.5 µM; in assay [9] it was 31.3 µM.

`CCCN=C(N)NC#N`: the TGI is 35.8 µM in assay [2]; > 100 µM in [3]; > 100 µM in assay [4]; > 100 µM in assay [5]; > 100 µM in [6]; > 100 µM in [7].

For the compound `CNC(=O)N(C)N=NCCCl`, the TGI in assay [8], in assay [2], in assay [4], in assay [5] and in [6] was > 100 µM throughout.

As for `O=c1[nH]c(=O)n(C2OC(CO)C(O)C2O)cc1NN=NCc1ccccc1` (centres undefined), the TGI was > 100 µM in assay [1]; 99.1 µM in assay [2]; > 100 µM in assay [3]; > 100 µM in assay [4]; > 100 µM in assay [5]; > 100 µM in [6]. Besides, the TGI in [9] and in assay [7] was > 100 µM in each case.

On to `O=C(CCn1[nH]c(=O)c(Cl)c(Cl)c1=O)NO`, for which the TGI in assay [1], in assay [2], in assay [3], in assay [4], in assay [5] and in assay [6] was > 100 µM in each case.

`Cc1ccc(Cc2c(=O)[nH]nc3ccccc23)cc1`: the TGI in [1], in assay [2], in assay [3], in assay [4], in [5] and in [6] was > 100 µM each time. For the same compound, the TGI in assay [9] and in assay [7] was > 100 µM each time.

Regarding `CC(C)(C)CC(C)(C)c1cc2c(O)c(c1)Cc1cc(C(C)(C)CC(C)(C)C)cc(c1O)Cc1cc(C(C)(C)CC(C)(C)C)cc(c1O)Cc1cc(C(C)(C)CC(C)(C)C)cc(c1O)C2`, the TGI in [1], in assay [2], in assay [4], in assay [5], in assay [6] and in [9] was > 100 µM in each case. The TGI in [7] was > 100 µM.

In assay [8], `COc1cc(C#CC(=O)OC/C=C/c2ccc3c(c2)OCO3)cc(OC)c1OC` had a TGI of 45 µM.

Take `CCCCC(C(=O)C(=O)NC1C2CC3CC(C2)CC1C3)C(=O)C(C)C` (centres undefined): the TGI in assay [1], in [2], in assay [3], in assay [4], in assay [5] and in [6] was > 100 µM throughout. Moreover, the TGI in assay [9] and in assay [7] was > 100 µM in each case.

As for `COc1ccc2c(c1)CCCC(Br)C2=O` (centres undefined), the TGI in assay [8] came to 9.21 µM.

For the compound `CN(C)/C=N/c1nc2c(ncn2C2OC(CO)C(O)C2O)c(=O)[nH]1` (centres undefined), the TGI in [1], in assay [2], in assay [3], in assay [4], in assay [5] and in assay [6] was > 100 µM each time. Also, the TGI in [9] and in assay [7] was > 100 µM throughout.

With `CN(C)c1ccc(C(C=C2c3ccccc3Sc3ccccc32)=C(C#N)C#N)cc1`, the TGI in [1], in assay [2], in assay [3], in assay [4], in assay [5] and in [6] was > 100 µM in each case. Besides, the TGI in [9] and in [7] was > 100 µM throughout.

With `Cc1cc(CC(O)c2ccc(Cl)c(Cl)c2)nc(=O)[nH]1` (centres undefined), the TGI was 41.3 µM in [1]; 26.8 µM in assay [2]; > 100 µM in [4]; > 100 µM in assay [5]; > 100 µM in assay [7].

Regarding `N#Cc1nc(Nc2cccc3ccccc23)sc1N`, the TGI in assay [1] is > 100 µM; in assay [4], > 100 µM; in assay [5], > 100 µM; in assay [6], > 100 µM; in [7], 75.6 µM.

As to `NC(=Nc1c([N+](=O)[O-])cnc2ccccc12)N1CCOCC1`, the TGI in assay [8] was > 100 µM.

In the case of `COC(=O)c1cc2c(s1)C(=O)c1ccccc1-2`, the TGI in [2], in assay [3], in assay [4], in assay [5], in assay [6] and in assay [9] was > 100 µM each time. Also, the TGI in [7] was > 100 µM.

As for `Cc1nn(-c2ccccc2)c2nc(N3CCOCC3)nnc12`, the TGI in assay [1], in assay [2], in assay [4], in assay [5], in [6] and in assay [9] was > 100 µM in each case. In addition, in [7], the TGI is > 100 µM.

As for `Cc1ccc(S(=O)(=O)N(CC(=O)O)c2ccccc2)cc1`, the TGI in assay [3], in assay [4], in [5] and in assay [6] was > 100 µM in each case.

As for `CC(CCC=O)CCOCc1ccccc1` (centres undefined), the TGI in [8], in assay [1], in assay [2], in [3], in assay [4] and in assay [5] was > 100 µM each time. Besides, the TGI in assay [6] and in assay [7] was > 100 µM throughout.
